Experimental findings from patent US7541477B2, “Antagonists to melanin-concentrating hormone receptor comprising benzimidazole derivative as active ingredient” (Banyu Pharmaceutical Co., Ltd., priority 2002, dated 2009) are described below.

Counter-ions that a name gives are not always drawn.

The target in this assay is T1, human MCH-1R (Homo sapiens, UniProt Q99705).
T1 construct: expressed in transfected cells; host or cells: CHO-K1 (American Type Culture Collection), membrane preparation
T1 sequence (Q99705 whole entry): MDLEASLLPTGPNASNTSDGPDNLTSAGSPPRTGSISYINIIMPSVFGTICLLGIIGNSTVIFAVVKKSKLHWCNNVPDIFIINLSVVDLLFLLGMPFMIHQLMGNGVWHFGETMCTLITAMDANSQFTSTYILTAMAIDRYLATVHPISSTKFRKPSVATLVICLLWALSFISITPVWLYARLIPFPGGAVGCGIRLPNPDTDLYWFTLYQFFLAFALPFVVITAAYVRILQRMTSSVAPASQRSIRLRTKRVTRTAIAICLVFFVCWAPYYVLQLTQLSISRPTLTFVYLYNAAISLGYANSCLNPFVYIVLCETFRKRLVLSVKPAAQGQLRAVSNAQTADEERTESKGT
Nature of the assay: MCH binding inhibition assay ([125I]MCH, membranes of CHO-K1 cells expressing MCH-1R). To be noted: 50 pM [125I]MCH, 25° C., 1 hour; read-out: 50% Inhibitory Concentration against MCH-Binding, IC50. The method, then:
cDNA sequence encoding human MCH-1R [FEBS Letters, 398:253(1996), Biochimica et Biophisica Acta, 1401: 216(1998)] was cloned into plasmid vector pEF/mic/cyto (Invitrogen). The expression vector so obtained was transfected into host cells CHO-K1 (American Type Culture Collection) by using Lipofectamine Plus Reagent (Life Technologies) to give MCH-1R expressing cells.
Membrane preparation generated from the cells expressing MCH-1R was incubated together with a test compound and 50 pM [^125I]MCH (NEN) in assay buffer (50 mM Tris buffer, pH7.4, containing 10 mM magnesium chloride, 2 mM ethylenediaminetetraacetic acid, 0.01% Bacitracin and 0.2% bovine serum albumin) at 25° C. for 1 hour, then filtered through a glass filter GF/C (Whatman). After washing the glass filter with 50 mM Tris buffer, pH7.4, containing 10 mM magnesium chloride, 2 mM ethylenediaminetetraacetic acid and 0.04% Tween-20, radioactivity on the glass filter was measured. Nonspecific binding was measured in the presence of 1 μM human MCH and a 50% inhibitory concentration (IC50) of the test compound against specific [^125I]MCH-binding was determined.
For `CC(C)N(C)c1nc2ccc(NC(=O)CCc3ccc(C(F)(F)F)cc3)cc2[nH]1` [Example 1, N-{2-[isopropyl(methyl)amino]-1H-benzimidazol-6-yl}-3-[4-(trifluoromethyl)phenyl]propanamide], the IC50 was found to be 5.8 nM.

On to `CC(C)N(C)c1nc2ccc(NC(=O)c3cnc(-c4ccc(F)cc4)cn3)cc2[nH]1` [Example 24, 5-(4-Fluorophenyl)-N-{2-[isopropyl(methyl)amino]-1H-benzimidazol-6-yl}-2-pyrazinecarboxamide hydrochloride], for which the IC50 was determined as 3.3 nM.

`COc1ccc(-c2ccc(C(=O)Nc3ccc4nc(N(C)C(C)C)[nH]c4c3)cc2)cn1` [Example 17, N-{2-[isopropyl(methyl)amino]-1H-benzimidazol-6-yl}-4-(6-methoxy-3-pyridinyl)benzamide]: the IC50 was 6.2 nM.
